In patent publication EP0584797A2, “Novel cephalosporin compounds and processes for the preparation thereof” (LUCKY LTD., priority 1992, dated 1994):
In brackets after ≈: the same amount, converted by molar mass.

Key:
Assay in all cases: minimal inhibitory concentration, two-fold agar dilution
Type in all cases: cell-based
[1] = test system: Pseudomonas aeruginosa ATCC 27853; conditions: ATCC27853, Muller-Hinton agar, 37°C, 20 hours, read-out: MIC values against the standard strains
Experimental: (§1) These MIC values were taken by employing a two-fold dilution method: that is, two-fold serial dilutions of each of the test compounds were made and dispersed in a Muller-Hinton agar medium; 2µl of the standard test strain which had the 10⁷ CFU(Colony Forming Unit) per ml was inoculated on the medium; and these were incubated at 37°C for 20 hours.

[2] = test system: Morganella morganii ATCC 8076h; conditions: ATCC8076H, Muller-Hinton agar, 37°C, 20 hours, read-out: MIC values against the standard strains
Experimental: as §1

[3] = test system: Bacillus megaterium ATCC 9885; conditions: Priestia megaterium, ATCC9885; Muller-Hinton agar; 37°C; 20 hours; read-out: MIC values against the standard strains
Experimental: as §1

[4] = test system: Proteus mirabilis ATCC 25933; conditions: ATCC25933, Muller-Hinton agar, 37°C, 20 hours, read-out: MIC values against the standard strains
Experimental: as §1

[5] = test system: Shigella sonnei ATCC 11060; conditions: ATCC11060, Muller-Hinton agar, 37°C, 20 hours, read-out: MIC values against the standard strains
Experimental: as §1

[6] = test system: Staphylococcus epidermidis ATCC 12228; conditions: ATCC12228, Muller-Hinton agar, 37°C, 20 hours, read-out: MIC values against the standard strains
Experimental: as §1

[7] = test system: Salmonella typhimurium ATCC 14028; conditions: Salmonella enterica; Muller-Hinton agar; 37°C; 20 hours; read-out: MIC values against the standard strains
Experimental: as §1

[8] = test system: Escherichia coli ATCC 10536; conditions: ATCC10536, Muller-Hinton agar, 37°C, 20 hours, read-out: MIC values against the standard strains
Experimental: as §1

[9] = test system: Enterobacter aerogenes ATCC 29751; conditions: Klebsiella aerogenes, ATCC29751; Muller-Hinton agar; 37°C; 20 hours; read-out: MIC values against the standard strains
Experimental: as §1

[10] = test system: Proteus vulgaris ATCC 6059; conditions: ATCC6059, Muller-Hinton agar, 37°C, 20 hours, read-out: MIC values against the standard strains
Experimental: as §1

[11] = test system: Staphylococcus aureus ATCC 6538p; conditions: ATCC6538P, Muller-Hinton agar, 37°C, 20 hours, read-out: MIC values against the standard strains
Experimental: as §1

[12] = test system: Streptococcus faecalis ATCC 29212; conditions: Enterococcus faecalis, ATCC29212; Muller-Hinton agar; 37°C; 20 hours; read-out: MIC values against the standard strains
Experimental: as §1

[13] = test system: Bacillus cereus ATCC 11778; conditions: ATCC11778, Muller-Hinton agar, 37°C, 20 hours, read-out: MIC values against the standard strains
Experimental: as §1

[14] = test system: Citrobacter freundii ATCC 8090; conditions: ATCC8090, Muller-Hinton agar, 37°C, 20 hours, read-out: MIC values against the standard strains
Experimental: as §1

[15] = test system: Serratia marcescens ATCC 27117; conditions: ATCC27117, Muller-Hinton agar, 37°C, 20 hours, read-out: MIC values against the standard strains
Experimental: as §1

[16] = test system: Klebsiella pneumoniae ATCC 10031; conditions: ATCC10031, Muller-Hinton agar, 37°C, 20 hours, read-out: MIC values against the standard strains
Experimental: as §1

[17] = test system: Shigella flexneri ATCC 11836; conditions: ATCC11836, Muller-Hinton agar, 37°C, 20 hours, read-out: MIC values against the standard strains
Experimental: as §1

[18] = test system: Enterobacter cloacae ATCC 27508; conditions: ATCC27508, Muller-Hinton agar, 37°C, 20 hours, read-out: MIC values against the standard strains
Experimental: as §1

[19] = test system: Micrococcus luteus ATCC 9341; conditions: ATCC9341, Muller-Hinton agar, 37°C, 20 hours, read-out: MIC values against the standard strains
Experimental: as §1

[20] = test system: Providencia rettgeri ATCC 9250; conditions: ATCC9250, Muller-Hinton agar, 37°C, 20 hours, read-out: MIC values against the standard strains
Experimental: as §1

[21] = test system: Staphylococcus aureus ATCC 10537; conditions: ATCC10537, Muller-Hinton agar, 37°C, 20 hours, read-out: MIC values against the standard strains
Experimental: as §1

[22] = test system: Escherichia coli ATCC 25922; conditions: ATCC25922, Muller-Hinton agar, 37°C, 20 hours, read-out: MIC values against the standard strains
Experimental: as §1

[23] = test system: Acinetobacter calcoaceticus ATCC 15473; conditions: ATCC15473, Muller-Hinton agar, 37°C, 20 hours, read-out: MIC values against the standard strains
Experimental: as §1

[24] = test system: Pseudomonas aeruginosa ATCC 25619; conditions: ATCC25619, Muller-Hinton agar, 37°C, 20 hours, read-out: MIC values against the standard strains
Experimental: as §1

[25] = test system: Pseudomonas aeruginosa ATCC 10145; conditions: ATCC10145, Muller-Hinton agar, 37°C, 20 hours, read-out: MIC values against the standard strains
Experimental: as §1

Compound | MIC [1] [µg/mL] | MIC [2] [µg/mL] | MIC [3] [µg/mL] | MIC [4] [µg/mL] | MIC [5] [µg/mL] | MIC [6] [µg/mL] | MIC [7] [µg/mL] | MIC [8] [µg/mL] | MIC [9] [µg/mL] | MIC [10] [µg/mL] | MIC [11] [µg/mL] | MIC [12] [µg/mL] | MIC [13] [µg/mL] | MIC [14] [µg/mL] | MIC [15] [µg/mL] | MIC [16] [µg/mL] | MIC [17] [µg/mL] | MIC [18] [µg/mL] | MIC [19] [µg/mL] | MIC [20] [µg/mL] | also measured
C[n+]1c(-c2ccccc2)cc(N)nc1SCC1=C(C(=O)[O-])N2C(=O)[C@@H](NC(=O)/C(=N\OC(C)(C)C(=O)O)c3csc(N)n3)[C@H]2SC1 [Example 20, 7-[(Z)-2-(2-aminothiazol-4-yl)-2-(carboxyprop-2-oxyimino)acetamido]-3-(4-amino-6-phenyl-1-methylpyrimidinium-2-yl)thiomethyl-3-cephem-4-carboxylate] | 4 (≈ 5.84 µM) | ≤ 0.008 | 0.13 (≈ 0.19 µM) | 0.25 (≈ 0.365 µM) | 0.25 (≈ 0.365 µM) | 1 (≈ 1.46 µM) | 1 (≈ 1.46 µM) | 0.25 (≈ 0.365 µM) | 4 (≈ 5.84 µM) | 0.5 (≈ 0.73 µM) | 4 (≈ 5.84 µM) | > 128 | 64 (≈ 93.5 µM) | 0.5 (≈ 0.73 µM) | 2 (≈ 2.92 µM) | 0.13 (≈ 0.19 µM) | 0.13 (≈ 0.19 µM) | 0.13 (≈ 0.19 µM) | 0.25 (≈ 0.365 µM) | ≤ 0.008 | MIC [21]: 2 µg/mL (≈ 2.92 µM); MIC [22]: 0.5 µg/mL (≈ 0.73 µM); MIC [23]: 64 µg/mL (≈ 93.5 µM); MIC [24]: 2 µg/mL (≈ 2.92 µM); MIC [25]: 16 µg/mL (≈ 23.4 µM)
CCO/N=C(\C(=O)N[C@@H]1C(=O)N2C(C(=O)[O-])=C(CSc3nc(N)c4ccccc4[n+]3C)CS[C@H]12)c1csc(N)n1 [Example 29, 7-[(Z)-2-(2-aminothiazol-4-yl)-2-(ethoxyimino)acetamido]-3-(4-amino-1-methylbenzo-[5,6,e]pyrimidinium-2-yl)thiomethyl-3-cephem-4-carboxylate] | 16 (≈ 26.6 µM) | ≤ 0.008 | 0.063 (≈ 0.105 µM) | 0.5 (≈ 0.832 µM) | 0.25 (≈ 0.416 µM) | 0.031 (≈ 0.0516 µM) | 0.5 (≈ 0.832 µM) | 0.13 (≈ 0.216 µM) | 0.25 (≈ 0.416 µM) | 0.5 (≈ 0.832 µM) | 0.13 (≈ 0.216 µM) | 16 (≈ 26.6 µM) | 16 (≈ 26.6 µM) | 0.13 (≈ 0.216 µM) | 0.5 (≈ 0.832 µM) | ≤ 0.008 | 0.063 (≈ 0.105 µM) | ≤ 0.008 | 0.016 (≈ 0.0266 µM) | ≤ 0.008 | MIC [21]: 0.13 µg/mL (≈ 0.216 µM); MIC [22]: 0.13 µg/mL (≈ 0.216 µM); MIC [23]: 16 µg/mL (≈ 26.6 µM); MIC [24]: 4 µg/mL (≈ 6.66 µM); MIC [25]: 16 µg/mL (≈ 26.6 µM)
CCO/N=C(\C(=O)N[C@@H]1C(=O)N2C(C(=O)[O-])=C(CSc3nc(N)c(C(=O)O)c[n+]3C)CS[C@H]12)c1csc(N)n1 [Example 25, 7-[(Z)-2-(2-aminothiazol-4-yl)-2-(ethoxyimino)acetamido]-3-(4-amino-5-carboxy-1-methylpyrimidinium-2-yl)thiomethyl-3-cephem-4-carboxylate] | 32 (≈ 53.8 µM) | ≤ 0.008 | 0.25 (≈ 0.42 µM) | 0.25 (≈ 0.42 µM) | 0.063 (≈ 0.106 µM) | 0.5 (≈ 0.841 µM) | 0.13 (≈ 0.219 µM) | 0.031 (≈ 0.0521 µM) | 1 (≈ 1.68 µM) | 0.25 (≈ 0.42 µM) | 1 (≈ 1.68 µM) | > 128 | 64 (≈ 108 µM) | 0.063 (≈ 0.106 µM) | 0.5 (≈ 0.841 µM) | 0.016 (≈ 0.0269 µM) | 0.016 (≈ 0.0269 µM) | ≤ 0.008 | 0.063 (≈ 0.106 µM) | ≤ 0.008 | MIC [21]: 0.5 µg/mL (≈ 0.841 µM); MIC [22]: 0.031 µg/mL (≈ 0.0521 µM); MIC [23]: 32 µg/mL (≈ 53.8 µM); MIC [24]: 2 µg/mL (≈ 3.36 µM); MIC [25]: 32 µg/mL (≈ 53.8 µM)
CCO/N=C(\C(=O)N[C@@H]1C(=O)N2C(C(=O)[O-])=C(CSc3nc(N)c4ccoc4[n+]3C)CS[C@H]12)c1csc(N)n1 [Example 33, 7-[(Z)-2-(2-aminothiazol-4-yl)-2-(ethoxyimino)acetamido]-3-(4-amino-1-methylfuro-[5,6,e]pyrimidinium-2-yl)thiomethyl-3-cephem-4-carboxylate] | 8 (≈ 13.5 µM) | ≤ 0.008 | 0.063 (≈ 0.107 µM) | 0.5 (≈ 0.846 µM) | 0.13 (≈ 0.22 µM) | 0.13 (≈ 0.22 µM) | 0.5 (≈ 0.846 µM) | 0.063 (≈ 0.107 µM) | 0.5 (≈ 0.846 µM) | 0.25 (≈ 0.423 µM) | 0.25 (≈ 0.423 µM) | 8 (≈ 13.5 µM) | 32 (≈ 54.2 µM) | 0.063 (≈ 0.107 µM) | 0.5 (≈ 0.846 µM) | ≤ 0.008 | 0.063 (≈ 0.107 µM) | ≤ 0.008 | 0.031 (≈ 0.0525 µM) | ≤ 0.008 | MIC [21]: 0.25 µg/mL (≈ 0.423 µM); MIC [22]: 0.063 µg/mL (≈ 0.107 µM); MIC [23]: 8 µg/mL (≈ 13.5 µM); MIC [24]: 0.5 µg/mL (≈ 0.846 µM); MIC [25]: 16 µg/mL (≈ 27.1 µM)
C[n+]1cc(-c2ccccc2)c(N)nc1SCC1=C(C(=O)[O-])N2C(=O)[C@@H](NC(=O)/C(=N\OC(C)(C)C(=O)O)c3csc(N)n3)[C@H]2SC1 [Example 21, 7-[(Z)-2-(2-aminothiazol-4-yl)-2-(carboxyprop-2-oxyimino)acetamido]-3-(4-amino-5-phenyl-1-methylpyrimidinium-2-yl)thiomethyl-3-cephem-4-carboxylate] | 8 (≈ 11.7 µM) | ≤ 0.008 | 0.13 (≈ 0.19 µM) | 0.25 (≈ 0.365 µM) | 0.13 (≈ 0.19 µM) | 2 (≈ 2.92 µM) | 0.5 (≈ 0.73 µM) | 0.13 (≈ 0.19 µM) | 2 (≈ 2.92 µM) | 0.25 (≈ 0.365 µM) | 4 (≈ 5.84 µM) | > 128 | 128 (≈ 187 µM) | 0.13 (≈ 0.19 µM) | 0.5 (≈ 0.73 µM) | 0.031 (≈ 0.0453 µM) | 0.063 (≈ 0.092 µM) | 0.016 (≈ 0.0234 µM) | 0.5 (≈ 0.73 µM) | ≤ 0.008 | MIC [21]: 1 µg/mL (≈ 1.46 µM); MIC [22]: 0.13 µg/mL (≈ 0.19 µM); MIC [23]: 32 µg/mL (≈ 46.7 µM); MIC [24]: 2 µg/mL (≈ 2.92 µM); MIC [25]: 16 µg/mL (≈ 23.4 µM)
CCO/N=C(\C(=O)N[C@@H]1C(=O)N2C(C(=O)[O-])=C(CSc3nc(N)cc(NC)[n+]3C)CS[C@H]12)c1csc(N)n1 [Example 36, 7-[(Z)-2-(2-aminothiazol-4-yl)-2-(ethoxyimino)acetamido]-3-(4-amino-6-methylamino-1-methylpyrimidinium-2-yl)thiomethyl-3-cephem-4-carboxylate] | 4 (≈ 6.9 µM) | 0.016 (≈ 0.0276 µM) | 0.063 (≈ 0.109 µM) | 0.25 (≈ 0.431 µM) | 0.063 (≈ 0.109 µM) | 0.031 (≈ 0.0535 µM) | 0.13 (≈ 0.224 µM) | 0.031 (≈ 0.0535 µM) | 0.13 (≈ 0.224 µM) | 0.25 (≈ 0.431 µM) | 0.25 (≈ 0.431 µM) | 32 (≈ 55.2 µM) | 32 (≈ 55.2 µM) | 0.016 (≈ 0.0276 µM) | 0.13 (≈ 0.224 µM) | ≤ 0.008 | ≤ 0.008 | ≤ 0.008 | ≤ 0.008 | ≤ 0.008 | MIC [21]: 0.13 µg/mL (≈ 0.224 µM); MIC [22]: 0.063 µg/mL (≈ 0.109 µM); MIC [23]: 4 µg/mL (≈ 6.9 µM); MIC [24]: 0.5 µg/mL (≈ 0.863 µM); MIC [25]: 8 µg/mL (≈ 13.8 µM)
